Test results reported in PubChem BioAssay (NCI).
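Briefly, cells in 96-well plates were exposed to five compound concentrations for 48 h, and endpoints were estimated by linear interpolation. TGI marks complete inhibition of growth.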

Each molecule was assayed on HOP-62 NSCLC (assay: growth of human tumour cells (NCI), 48 h).

Compound | TGI
O=C1NCc2ccccc2S(=O)(=O)n2cccc21 | > 100 µM
O=C(/C=C/c1ccccc1)NNC(=O)c1c(Cl)c(Cl)c(Cl)c(Cl)c1-c1nc2ccccc2[nH]1 | 56.5 µM
Fc1ccc(C(OCCN2CCC3CCC(C2)N3C/C=C/c2ccco2)c2ccc(F)cc2)cc1 (configuration not stated) | 36.5 µM
O=c1c2nc3ccccc3c(=O)n2ncn1-c1ccccc1Cl | > 100 µM
CC(=O)OCC1OC(OC2CC3C(C)(C)C(OC(C)=O)CC[C@]3(C)C3CCC45CC4(CCC5[C@@H](C)C[C@H](O)C(O)C(C)(C)O)[C@]23C)C(O)C(O)C1O (some centres not stated) | > 10 µM

Each molecule was assayed on HOP-92 NSCLC (assay: growth of human tumour cells (NCI), 48 h).

Compound | TGI
O=C(/C=C/c1ccccc1)NNC(=O)c1c(Cl)c(Cl)c(Cl)c(Cl)c1-c1nc2ccccc2[nH]1 | 45.7 µM
Fc1ccc(C(OCCN2CCC3CCC(C2)N3C/C=C/c2ccco2)c2ccc(F)cc2)cc1 (configuration not stated) | 19.1 µM
O=c1c2nc3ccccc3c(=O)n2ncn1-c1ccccc1Cl | > 100 µM
CC(=O)OCC1OC(OC2CC3C(C)(C)C(OC(C)=O)CC[C@]3(C)C3CCC45CC4(CCC5[C@@H](C)C[C@H](O)C(O)C(C)(C)O)[C@]23C)C(O)C(O)C1O (some centres not stated) | > 10 µM

These molecules were tested on HS 578T breast (assay: growth of human tumour cells (NCI), 48 h).

Compound | TGI
Cc1nn(-c2ccccc2)c(C)c1/C=N/N=C1\SCC(=O)N1c1ccccc1 | > 100 µM
OCC(O)C(Cl)CCl (configuration not stated) | > 100 µM
O=C1NCc2ccccc2S(=O)(=O)n2cccc21 | > 100 µM
Fc1ccc(C(OCCN2CCC3CCC(C2)N3C/C=C/c2ccco2)c2ccc(F)cc2)cc1 (configuration not stated) | 34.3 µM
O=c1c2nc3ccccc3c(=O)n2ncn1-c1ccccc1Cl | > 100 µM
CC(=O)OCC1OC(OC2CC3C(C)(C)C(OC(C)=O)CC[C@]3(C)C3CCC45CC4(CCC5[C@@H](C)C[C@H](O)C(O)C(C)(C)O)[C@]23C)C(O)C(O)C1O (some centres not stated) | > 10 µM

These molecules were tested on HT29 colon (assay: growth of human tumour cells (NCI), 48 h).

Compound | TGI
Cc1nn(-c2ccccc2)c(C)c1/C=N/N=C1\SCC(=O)N1c1ccccc1 | 73.9 µM
OCC(O)C(Cl)CCl (configuration not stated) | > 100 µM
O=C1NCc2ccccc2S(=O)(=O)n2cccc21 | > 100 µM
O=C(/C=C/c1ccccc1)NNC(=O)c1c(Cl)c(Cl)c(Cl)c(Cl)c1-c1nc2ccccc2[nH]1 | > 100 µM
O=c1c2nc3ccccc3c(=O)n2ncn1-c1ccccc1Cl | > 100 µM
CC(=O)OCC1OC(OC2CC3C(C)(C)C(OC(C)=O)CC[C@]3(C)C3CCC45CC4(CCC5[C@@H](C)C[C@H](O)C(O)C(C)(C)O)[C@]23C)C(O)C(O)C1O (some centres not stated) | > 10 µM

Each molecule was assayed on IGROV1 ovarian (assay: growth of human tumour cells (NCI), 48 h).

Compound | TGI
Cc1nn(-c2ccccc2)c(C)c1/C=N/N=C1\SCC(=O)N1c1ccccc1 | 93.9 µM
OCC(O)C(Cl)CCl (configuration not stated) | > 100 µM
O=C1NCc2ccccc2S(=O)(=O)n2cccc21 | > 100 µM
O=C(/C=C/c1ccccc1)NNC(=O)c1c(Cl)c(Cl)c(Cl)c(Cl)c1-c1nc2ccccc2[nH]1 | 45.6 µM
Fc1ccc(C(OCCN2CCC3CCC(C2)N3C/C=C/c2ccco2)c2ccc(F)cc2)cc1 (configuration not stated) | 21 µM
O=c1c2nc3ccccc3c(=O)n2ncn1-c1ccccc1Cl | > 100 µM
CC(=O)OCC1OC(OC2CC3C(C)(C)C(OC(C)=O)CC[C@]3(C)C3CCC45CC4(CCC5[C@@H](C)C[C@H](O)C(O)C(C)(C)O)[C@]23C)C(O)C(O)C1O (some centres not stated) | > 10 µM

What follows are molecules tested on K-562 leukemia (assay: growth of human tumour cells (NCI), 48 h).

Compound | TGI
Cc1nn(-c2ccccc2)c(C)c1/C=N/N=C1\SCC(=O)N1c1ccccc1 | > 100 µM
OCC(O)C(Cl)CCl (configuration not stated) | > 100 µM
O=C(/C=C/c1ccccc1)NNC(=O)c1c(Cl)c(Cl)c(Cl)c(Cl)c1-c1nc2ccccc2[nH]1 | > 100 µM
Fc1ccc(C(OCCN2CCC3CCC(C2)N3C/C=C/c2ccco2)c2ccc(F)cc2)cc1 (configuration not stated) | 20.7 µM
O=c1c2nc3ccccc3c(=O)n2ncn1-c1ccccc1Cl | > 100 µM
CC(=O)OCC1OC(OC2CC3C(C)(C)C(OC(C)=O)CC[C@]3(C)C3CCC45CC4(CCC5[C@@H](C)C[C@H](O)C(O)C(C)(C)O)[C@]23C)C(O)C(O)C1O (some centres not stated) | > 10 µM

These molecules were tested on KM12 colon (assay: growth of human tumour cells (NCI), 48 h).

Compound | TGI
Cc1nn(-c2ccccc2)c(C)c1/C=N/N=C1\SCC(=O)N1c1ccccc1 | 94.7 µM
OCC(O)C(Cl)CCl (configuration not stated) | > 100 µM
O=C1NCc2ccccc2S(=O)(=O)n2cccc21 | > 100 µM
Fc1ccc(C(OCCN2CCC3CCC(C2)N3C/C=C/c2ccco2)c2ccc(F)cc2)cc1 (configuration not stated) | 30.6 µM
O=c1c2nc3ccccc3c(=O)n2ncn1-c1ccccc1Cl | > 100 µM
CC(=O)OCC1OC(OC2CC3C(C)(C)C(OC(C)=O)CC[C@]3(C)C3CCC45CC4(CCC5[C@@H](C)C[C@H](O)C(O)C(C)(C)O)[C@]23C)C(O)C(O)C1O (some centres not stated) | > 10 µM

What follows are molecules tested on LOX IMVI melanoma (assay: growth of human tumour cells (NCI), 48 h).

Compound | TGI
Cc1nn(-c2ccccc2)c(C)c1/C=N/N=C1\SCC(=O)N1c1ccccc1 | 48.1 µM
O=C1NCc2ccccc2S(=O)(=O)n2cccc21 | > 100 µM
O=C(/C=C/c1ccccc1)NNC(=O)c1c(Cl)c(Cl)c(Cl)c(Cl)c1-c1nc2ccccc2[nH]1 | 59.6 µM
Fc1ccc(C(OCCN2CCC3CCC(C2)N3C/C=C/c2ccco2)c2ccc(F)cc2)cc1 (configuration not stated) | 24.2 µM
O=c1c2nc3ccccc3c(=O)n2ncn1-c1ccccc1Cl | > 100 µM
CC(=O)OCC1OC(OC2CC3C(C)(C)C(OC(C)=O)CC[C@]3(C)C3CCC45CC4(CCC5[C@@H](C)C[C@H](O)C(O)C(C)(C)O)[C@]23C)C(O)C(O)C1O (some centres not stated) | > 10 µM

These molecules were tested on M14 melanoma (assay: growth of human tumour cells (NCI), 48 h).

Compound | TGI
Cc1nn(-c2ccccc2)c(C)c1/C=N/N=C1\SCC(=O)N1c1ccccc1 | 60.7 µM
OCC(O)C(Cl)CCl (configuration not stated) | > 100 µM
O=C1NCc2ccccc2S(=O)(=O)n2cccc21 | > 100 µM
O=C(/C=C/c1ccccc1)NNC(=O)c1c(Cl)c(Cl)c(Cl)c(Cl)c1-c1nc2ccccc2[nH]1 | 83.5 µM
Fc1ccc(C(OCCN2CCC3CCC(C2)N3C/C=C/c2ccco2)c2ccc(F)cc2)cc1 (configuration not stated) | 18.8 µM
O=c1c2nc3ccccc3c(=O)n2ncn1-c1ccccc1Cl | > 100 µM
CC(=O)OCC1OC(OC2CC3C(C)(C)C(OC(C)=O)CC[C@]3(C)C3CCC45CC4(CCC5[C@@H](C)C[C@H](O)C(O)C(C)(C)O)[C@]23C)C(O)C(O)C1O (some centres not stated) | > 10 µM

Each molecule was assayed on MALME-3M melanoma (assay: growth of human tumour cells (NCI), 48 h).

Compound | TGI
Cc1nn(-c2ccccc2)c(C)c1/C=N/N=C1\SCC(=O)N1c1ccccc1 | 57.9 µM
OCC(O)C(Cl)CCl (configuration not stated) | > 100 µM
O=C1NCc2ccccc2S(=O)(=O)n2cccc21 | > 100 µM
O=C(/C=C/c1ccccc1)NNC(=O)c1c(Cl)c(Cl)c(Cl)c(Cl)c1-c1nc2ccccc2[nH]1 | 59.1 µM
Fc1ccc(C(OCCN2CCC3CCC(C2)N3C/C=C/c2ccco2)c2ccc(F)cc2)cc1 (configuration not stated) | 21.7 µM
O=c1c2nc3ccccc3c(=O)n2ncn1-c1ccccc1Cl | > 100 µM
CC(=O)OCC1OC(OC2CC3C(C)(C)C(OC(C)=O)CC[C@]3(C)C3CCC45CC4(CCC5[C@@H](C)C[C@H](O)C(O)C(C)(C)O)[C@]23C)C(O)C(O)C1O (some centres not stated) | > 10 µM

The molecules below were run on MCF7 breast (assay: growth of human tumour cells (NCI), 48 h).

Compound | TGI
Cc1nn(-c2ccccc2)c(C)c1/C=N/N=C1\SCC(=O)N1c1ccccc1 | > 100 µM
OCC(O)C(Cl)CCl (configuration not stated) | > 100 µM
O=C1NCc2ccccc2S(=O)(=O)n2cccc21 | > 100 µM
O=C(/C=C/c1ccccc1)NNC(=O)c1c(Cl)c(Cl)c(Cl)c(Cl)c1-c1nc2ccccc2[nH]1 | > 100 µM
Fc1ccc(C(OCCN2CCC3CCC(C2)N3C/C=C/c2ccco2)c2ccc(F)cc2)cc1 (configuration not stated) | 22.7 µM
O=c1c2nc3ccccc3c(=O)n2ncn1-c1ccccc1Cl | > 100 µM
CC(=O)OCC1OC(OC2CC3C(C)(C)C(OC(C)=O)CC[C@]3(C)C3CCC45CC4(CCC5[C@@H](C)C[C@H](O)C(O)C(C)(C)O)[C@]23C)C(O)C(O)C1O (some centres not stated) | > 10 µM

What follows are molecules tested on MDA-MB-231 breast (assay: growth of human tumour cells (NCI), 48 h).

Compound | TGI
Cc1nn(-c2ccccc2)c(C)c1/C=N/N=C1\SCC(=O)N1c1ccccc1 | > 100 µM
OCC(O)C(Cl)CCl (configuration not stated) | > 100 µM
O=C1NCc2ccccc2S(=O)(=O)n2cccc21 | > 100 µM
Fc1ccc(C(OCCN2CCC3CCC(C2)N3C/C=C/c2ccco2)c2ccc(F)cc2)cc1 (configuration not stated) | 23.6 µM
O=c1c2nc3ccccc3c(=O)n2ncn1-c1ccccc1Cl | > 100 µM
CC(=O)OCC1OC(OC2CC3C(C)(C)C(OC(C)=O)CC[C@]3(C)C3CCC45CC4(CCC5[C@@H](C)C[C@H](O)C(O)C(C)(C)O)[C@]23C)C(O)C(O)C1O (some centres not stated) | > 10 µM

The molecules below were run on MDA-MB-435 (assay: growth of human tumour cells (NCI), 48 h).

Compound | TGI
Cc1nn(-c2ccccc2)c(C)c1/C=N/N=C1\SCC(=O)N1c1ccccc1 | 55.3 µM
O=C1NCc2ccccc2S(=O)(=O)n2cccc21 | > 100 µM
O=C(/C=C/c1ccccc1)NNC(=O)c1c(Cl)c(Cl)c(Cl)c(Cl)c1-c1nc2ccccc2[nH]1 | > 100 µM
Fc1ccc(C(OCCN2CCC3CCC(C2)N3C/C=C/c2ccco2)c2ccc(F)cc2)cc1 (configuration not stated) | 26.5 µM
O=c1c2nc3ccccc3c(=O)n2ncn1-c1ccccc1Cl | > 100 µM
CC(=O)OCC1OC(OC2CC3C(C)(C)C(OC(C)=O)CC[C@]3(C)C3CCC45CC4(CCC5[C@@H](C)C[C@H](O)C(O)C(C)(C)O)[C@]23C)C(O)C(O)C1O (some centres not stated) | > 10 µM

What follows are molecules tested on MDA-N (assay: growth of human tumour cells (NCI), 48 h).

Compound | TGI
Cc1nn(-c2ccccc2)c(C)c1/C=N/N=C1\SCC(=O)N1c1ccccc1 | 59.6 µM
OCC(O)C(Cl)CCl (configuration not stated) | > 100 µM
O=C1NCc2ccccc2S(=O)(=O)n2cccc21 | > 100 µM
O=C(/C=C/c1ccccc1)NNC(=O)c1c(Cl)c(Cl)c(Cl)c(Cl)c1-c1nc2ccccc2[nH]1 | 45.4 µM
Fc1ccc(C(OCCN2CCC3CCC(C2)N3C/C=C/c2ccco2)c2ccc(F)cc2)cc1 (configuration not stated) | 25.9 µM
O=c1c2nc3ccccc3c(=O)n2ncn1-c1ccccc1Cl | > 100 µM
CC(=O)OCC1OC(OC2CC3C(C)(C)C(OC(C)=O)CC[C@]3(C)C3CCC45CC4(CCC5[C@@H](C)C[C@H](O)C(O)C(C)(C)O)[C@]23C)C(O)C(O)C1O (some centres not stated) | > 10 µM

The molecules below were run on MOLT-4 leukemia (assay: growth of human tumour cells (NCI), 48 h).

Compound | TGI
Cc1nn(-c2ccccc2)c(C)c1/C=N/N=C1\SCC(=O)N1c1ccccc1 | > 100 µM
OCC(O)C(Cl)CCl (configuration not stated) | > 100 µM
O=C1NCc2ccccc2S(=O)(=O)n2cccc21 | > 100 µM
O=C(/C=C/c1ccccc1)NNC(=O)c1c(Cl)c(Cl)c(Cl)c(Cl)c1-c1nc2ccccc2[nH]1 | > 100 µM
Fc1ccc(C(OCCN2CCC3CCC(C2)N3C/C=C/c2ccco2)c2ccc(F)cc2)cc1 (configuration not stated) | 20.4 µM
CC(=O)OCC1OC(OC2CC3C(C)(C)C(OC(C)=O)CC[C@]3(C)C3CCC45CC4(CCC5[C@@H](C)C[C@H](O)C(O)C(C)(C)O)[C@]23C)C(O)C(O)C1O (some centres not stated) | > 10 µM

These molecules were tested on NCI-H226 lung (assay: growth of human tumour cells (NCI), 48 h).

Compound | TGI
Cc1nn(-c2ccccc2)c(C)c1/C=N/N=C1\SCC(=O)N1c1ccccc1 | 66.5 µM
OCC(O)C(Cl)CCl (configuration not stated) | > 100 µM
O=C1NCc2ccccc2S(=O)(=O)n2cccc21 | > 100 µM
O=C(/C=C/c1ccccc1)NNC(=O)c1c(Cl)c(Cl)c(Cl)c(Cl)c1-c1nc2ccccc2[nH]1 | > 100 µM
Fc1ccc(C(OCCN2CCC3CCC(C2)N3C/C=C/c2ccco2)c2ccc(F)cc2)cc1 (configuration not stated) | 28.8 µM
